row,melting point,Compound
1,104 to 105 °C,COc1cc(CCCC2SC(=O)NC2=O)ccc1OCc1csc(CCc2ccccc2)n1 (centres undefined)
2,259 to 260 °C,O=c1[nH]c(-c2c(F)cccc2F)nn1-c1ccccc1C(F)(F)F
3,190 °C,CC(Cl)c1nc2c(c(=O)n(C)c(=O)n2C)n1C (centres undefined)
4,62 to 64 °C,Cc1oc(-c2ccccc2)nc1COc1cccc(CN(O)C(=O)N(C)O)c1
5,191 to 193 °C,O=C1CN(c2ccc(I)cc2)S(=O)(=O)N1
6,245 °C,CN1CCN(c2c(F)c(F)c3c(=O)c(C(=O)O)cn(C4CC4)c3c2F)CC1
7,198 °C,CCCCn1c(=O)n2cnnc2c2[nH]c(-c3cc(S(=O)(=O)N4CC(CN(C)C)C4)ccc3OCCC)nc21
8,46 to 47 °C,CCCCCCC(=S)SCCCC
9,48.5 to 50 °C,COc1ccc(CC(C)(C)CO)cc1OC
10,263 °C,CC1(C)OC(=C(C#N)C#N)C(C#N)=C1c1ccc(F)cc1
11,145 to 147 °C,O=[N+]([O-])C12C3C4C1C1(Cl)C2C3C41[N+](=O)[O-] (centres undefined)
12,165 to 170 °C,COc1ccccc1C1=NNNN1C(c1ccccc1)(c1ccccc1)c1ccccc1
13,104 to 107 °C,CN1C(=O)C=C(c2ccc3c(c2)CCCC3)C1=O
14,228 to 229 °C,O=C1OC(c2ccccc2)=NC1=Cc1c(O)ccc2ccccc12
15,150 to 151 °C,CCc1ccc(NC(=O)c2cc(C(C)(C)C)ccc2S)cc1
16,312 to 314 °C,O=C1CCCC(=O)N1CCCn1c2ccccc2c2nc3ccccc3nc21
17,208 to 210 °C,CC(=O)Nc1nc(-c2ccc(CCC(=O)O)cc2)c(Cc2ccc(S(C)(=O)=O)cc2)s1
18,137 to 138 °C,CSc1c(NC(C)=O)cnc2ccccc12

row,melting point,Compound
1,90 to 92 °C,COC(=O)C=C(C)c1ccc(-c2ccc(F)cc2F)cc1
2,138 to 141 °C,CC(=O)CC(=O)N(C)c1cccc(-c2ccc3nnc(C)n3n2)c1
3,114 to 118 °C,CN(CCCCCCC(=O)O)c1cnc(-c2ccccc2)c(-c2ccccc2)n1
4,184 to 186 °C,COc1ccc(Sc2cc(Cl)ccc2[N+](=O)[O-])c(C(=O)O)c1
5,93 to 94 °C,CCN(CC)CC1CCn2c(nc3ccccc32)S1 (centres undefined)
6,171 to 172 °C,NC(=O)N(O)CCOc1ccc2c(c1)CCN(Cc1ccc(-c3ccc(F)cc3)cc1)C2=O
7,115 to 117 °C,CS(=O)(=O)N1CCSc2cccc(F)c2C1
8,144 to 147 °C,COc1ccccc1NC(=O)Nc1nc(Nc2ccccc2-c2ccccc2)nc(N(CCC(=O)O)Cc2ccc(-c3ccccc3)cc2)n1
9,160 °C,Cc1ccc(C=Nc2c(-c3ccccc3C)nc3c4ccccc4ccn23)cc1
10,118 to 120 °C,O=c1c(-c2cccc(C(F)(F)F)c2F)nn(Cc2ccc(F)cc2F)c2cc(Cl)ccc12
11,223 to 224 °C,CCOc1cc(CN2CCN(c3ccc(C(=O)NC4CC4)cc3C)CC2)cc2c1OC(C)C(=O)N2 (centres undefined)
12,250 to 251 °C,N#Cc1cnc2c(sc3ccccc32)c1Nc1ccc(Cl)cc1F
13,172 to 174 °C,COc1ccc(CCNC[C@H](O)COc2ccc(-c3nc(Br)c[nH]3)cc2Cl)cc1OC
14,120 to 122 °C,CCSc1cc(C)nc(SCC)c1NC(=O)CN1CCN(CCSc2nc3c(C)c(Cl)cc(C(C)C)c3o2)CC1
15,122 °C,CCCCN1C(=O)NC(Cc2cc(OC)c(OC)cc2OC)C1=O (centres undefined)
16,120 to 124 °C,CN(Cc1ccccc1)c1nc(=O)c2cc(C(F)(F)F)cc([N+](=O)[O-])c2s1
17,68 to 69 °C,C=CCNC(=S)NC(=O)c1ccccc1
18,67 to 68 °C,COc1cc(C)c(CCCCCCCCCCCCCCCCCCCCCC(=O)O)c(O)c1OC

row,Compound,melting point
1,COc1ccc(-c2nc3c(C(=O)NC4CN5CCC4CC5)cccc3o2)cc1 (centres undefined),108 to 109 °C
2,C=C=CC12CCC(=O)C=C1C=CC1C3CCC(=O)C3(C)CCC12 (centres undefined),152 to 154 °C
3,CN1C(=O)C(C(=O)Nc2ccc(Oc3ccc(C(F)(F)F)cn3)cc2)C(=O)N(C)C1=O,180 to 181 °C
